For this assay, the system named is BDF1 mice, P388 leukemia ip, median survival T/C. The assay can be described thus: NCI In Vivo Anticancer Drug Screen. Data for tumor model P388 Leukemia (intraperitoneal) in B6D2F1 (BDF1) mice. The following applies: endpoint: median survival time, higher = longer survival. A digest of the protocol:
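Antitumour effect was judged in vivo: survival in drug-treated mice, normalised to that of vehicle-dosed controls, gives the reported T/C.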

Setting [1] is: dose: 25.0 mg/kg/injection, schedule: Q01DX009 (ip), vehicle: Klucel (hydroxypropylcellulose) (HPC).
The mark [2] stands for this setting: dose: 50.0 mg/kg/injection, schedule: Q01DX009 (ip), vehicle: Klucel (hydroxypropylcellulose) (HPC).
[3] abbreviates: dose: 50.0 mg/kg/injection, schedule: Q01DX009 (ip), vehicle: other.
Setting [4] is: dose: 50.0 mg/kg/injection, schedule: Q01DX009 (ip), vehicle: saline with Tween-80.
[5] abbreviates: dose: 100.0 mg/kg/injection, schedule: Q01DX009 (ip), vehicle: Klucel (hydroxypropylcellulose) (HPC).
Setting [6] is: dose: 100.0 mg/kg/injection, schedule: Q01DX009 (ip), vehicle: saline with Tween-80.
Where [7] appears, read: dose: 200.0 mg/kg/injection, schedule: Q04DX003 (ip), vehicle: Klucel (hydroxypropylcellulose) (HPC).

SMILES strings stand for the structures. Values joined by “and” are separate entries in the source; they are usually repeats but may differ in a detail not shown here. Equal values may be shown once. Inconclusive results and toxic doses are left out.

On to `COC1C(O)C(C)OC(OC2C(Oc3cccc4c(O)c5c(=O)oc6ccc(C)c7c(=O)oc(c34)c5c67)OC(C)C(O)C2O)C1O` (centres undefined), for which the T/C was 98 % of control and 121 % of control (dose: 0.39 mg/kg/injection, schedule: Q01DX009 (ip), vehicle: other); 110 % of control (dose: 0.39 mg/kg/injection, schedule: Q01DX009 (oral), vehicle: Klucel (hydroxypropylcellulose) (HPC)); 104 % of control (dose: 0.78 mg/kg/injection, schedule: Q01DX009 (ip), vehicle: other); 100 % of control (dose: 0.78 mg/kg/injection, schedule: Q01DX009 (oral), vehicle: Klucel (hydroxypropylcellulose) (HPC)); 106 % of control (dose: 1.56 mg/kg/injection, schedule: Q01DX009 (ip), vehicle: other); 98 % of control and 104 % of control (dose: 1.56 mg/kg/injection, schedule: Q01DX009 (oral), vehicle: Klucel (hydroxypropylcellulose) (HPC)). Further, the T/C (dose: 3.12 mg/kg/injection, schedule: Q01DX009 (ip), vehicle: Klucel (hydroxypropylcellulose) (HPC)) is 159 % of control; the T/C (dose: 3.12 mg/kg/injection, schedule: Q01DX009 (ip), vehicle: other) is 159 % of control; the T/C (dose: 3.12 mg/kg/injection, schedule: Q01DX009 (oral), vehicle: Klucel (hydroxypropylcellulose) (HPC)) is 109 % of control and 110 % of control; the T/C (dose: 3.13 mg/kg/injection, schedule: Q01DX009 (ip), vehicle: saline with Tween-80) is 162 % of control; the T/C (dose: 6.25 mg/kg/injection, schedule: Q01DX009 (ip), vehicle: Klucel (hydroxypropylcellulose) (HPC)) was 173 % of control; the T/C (dose: 6.25 mg/kg/injection, schedule: Q01DX009 (ip), vehicle: other) is 200 % of control. Further, the T/C (dose: 6.25 mg/kg/injection, schedule: Q01DX009 (ip), vehicle: saline with Tween-80) was 217 % of control; the T/C (dose: 6.25 mg/kg/injection, schedule: Q01DX009 (oral), vehicle: Klucel (hydroxypropylcellulose) (HPC)) was 101 % of control and 106 % of control; the T/C (dose: 8.0 mg/kg/injection, schedule: Q04DX003 (ip), vehicle: saline with Tween-80) was 150 % of control; the T/C (dose: 12.5 mg/kg/injection, schedule: Q01DX009 (ip), vehicle: Klucel (hydroxypropylcellulose) (HPC)) was 209 % of control; the T/C (dose: 12.5 mg/kg/injection, schedule: Q01DX009 (ip), vehicle: other) was 156 % of control and 165 % of control and 205 % of control; the T/C (dose: 12.5 mg/kg/injection, schedule: Q01DX009 (ip), vehicle: saline with Tween-80) is 190 % of control and 199 % of control. The T/C runs as follows: (dose: 12.5 mg/kg/injection, schedule: Q01DX009 (oral), vehicle: Klucel (hydroxypropylcellulose) (HPC)) 103 % of control and 105 % of control; (dose: 16.0 mg/kg/injection, schedule: Q04DX003 (ip), vehicle: saline with Tween-80) 173 % of control; under setting [1], 221 % of control; (dose: 25.0 mg/kg/injection, schedule: Q01DX009 (ip), vehicle: other) 167 % of control and 215 % of control; (dose: 25.0 mg/kg/injection, schedule: Q01DX009 (ip), vehicle: saline with Tween-80) 236 % of control and 210 % of control; (dose: 25.0 mg/kg/injection, schedule: Q01DX009 (oral), vehicle: Klucel (hydroxypropylcellulose) (HPC)) 100 % of control and 105 % of control. For the same molecule, the T/C (dose: 32.0 mg/kg/injection, schedule: Q04DX003 (ip), vehicle: saline with Tween-80) is 172 % of control; the T/C (dose: 43.2 mg/kg/injection, schedule: Q04DX003 (ip), vehicle: Klucel (hydroxypropylcellulose) (HPC)) is 170 % of control; the T/C (dose: 43.2 mg/kg/injection, schedule: Q04DX003 (ip), vehicle: acid diluted with saline) was 153 % of control; the T/C under setting [2] is 221 % of control; the T/C under setting [3] was 231 % of control and 193 % of control; the T/C under setting [4] was 190 % of control. Also, the T/C is 103 % of control and 111 % of control (dose: 50.0 mg/kg/injection, schedule: Q01DX009 (oral), vehicle: Klucel (hydroxypropylcellulose) (HPC)); 175 % of control (dose: 64.0 mg/kg/injection, schedule: Q04DX003 (ip), vehicle: saline with Tween-80); 173 % of control (dose: 72.0 mg/kg/injection, schedule: Q04DX003 (ip), vehicle: Klucel (hydroxypropylcellulose) (HPC)); 173 % of control (dose: 72.0 mg/kg/injection, schedule: Q04DX003 (ip), vehicle: acid diluted with saline); 170 % of control under setting [5]; 190 % of control and 220 % of control under setting [6]. In addition, the T/C is, setting by setting: (dose: 100.0 mg/kg/injection, schedule: Q01DX009 (oral), vehicle: Klucel (hydroxypropylcellulose) (HPC)) 104 % of control; (dose: 120.0 mg/kg/injection, schedule: Q04DX003 (ip), vehicle: Klucel (hydroxypropylcellulose) (HPC)) 184 % of control; (dose: 120.0 mg/kg/injection, schedule: Q04DX003 (ip), vehicle: acid diluted with saline) 180 % of control; (dose: 128.0 mg/kg/injection, schedule: Q04DX003 (ip), vehicle: saline with Tween-80) 182 % of control; (dose: 200.0 mg/kg/injection, schedule: Q01DX009 (oral), vehicle: Klucel (hydroxypropylcellulose) (HPC)) 105 % of control; under setting [7], 175 % of control. Moreover, the T/C (dose: 200.0 mg/kg/injection, schedule: Q04DX003 (ip), vehicle: acid diluted with saline) is 173 % of control.
On to `NC(N)=NCCCC(NC(=O)OCc1ccccc1)C(=O)O` (centres undefined), for which the T/C reads like this: (dose: 100.0 mg/kg/injection, schedule: Q04DX003 (ip), vehicle: Klucel (hydroxypropylcellulose) (HPC)) 100 % of control; under setting [7], 104 % of control; (dose: 400.0 mg/kg/injection, schedule: Q04DX003 (ip), vehicle: Klucel (hydroxypropylcellulose) (HPC)) 100 % of control.
Regarding `N#Cc1c(NN)n(C2OC(CO)C(O)C2O)c2ncnc(N)c12` (centres undefined), the T/C (dose: 50.0 mg/kg/injection, schedule: Q04DX003 (ip), vehicle: saline) was 100 % of control and the T/C (dose: 83.0 mg/kg/injection, schedule: Q04DX003 (ip), vehicle: saline) is 100 % of control.
Turning to `COC(=O)/C(C#N)=C\c1ccccc1`, the T/C is, setting by setting: (dose: 50.0 mg/kg/injection, schedule: Q04DX003 (ip), vehicle: saline with Tween-80) 104 % of control; (dose: 100.0 mg/kg/injection, schedule: Q04DX003 (ip), vehicle: saline with Tween-80) 109 % of control.
Regarding `O=C(Oc1ccc(-c2ccc(Br)cc2)cc1)c1ccco1`, the T/C runs as follows: under setting [4], 90 % of control; under setting [6], 90 % of control.
For `Cc1ccc(N2C=Nc3ccc(C)cc3C2)cc1`, the T/C by setting is: (dose: 10.0 mg/kg/injection, schedule: Q01DX009 (ip), vehicle: Klucel (hydroxypropylcellulose) (HPC)) 100 % of control; (dose: 15.0 mg/kg/injection, schedule: Q01DX009 (ip), vehicle: Klucel (hydroxypropylcellulose) (HPC)) 100 % of control; under setting [1], 90 % of control; (dose: 40.0 mg/kg/injection, schedule: Q01DX009 (ip), vehicle: Klucel (hydroxypropylcellulose) (HPC)) 100 % of control; under setting [2], 118 % of control; under setting [5], 109 % of control. In addition, the T/C reads like this: (dose: 100.0 mg/kg/injection, schedule: Q04DX003 (ip), vehicle: other) 109 % of control; (dose: 200.0 mg/kg/injection, schedule: Q01DX009 (ip), vehicle: Klucel (hydroxypropylcellulose) (HPC)) 90 % of control; (dose: 200.0 mg/kg/injection, schedule: Q04DX003 (ip), vehicle: other) 104 % of control.
For `c1cc(OCC2CO2)ccc1OCC1CO1` (centres undefined), the T/C is 119 % of control (dose: 78.0 mg/kg/injection, schedule: Q04DX003 (ip), vehicle: saline with Tween-80); 153 % of control (dose: 177.0 mg/kg/injection, schedule: Q04DX003 (ip), vehicle: saline with Tween-80); 122 % of control (dose: 600.0 mg/kg/injection, schedule: Q04DX003 (ip), vehicle: saline with Tween-80).
Consider `CCN(CC)CCNc1ccc(C)c2sc3ccc(O)cc3c(=O)c12`, for which the T/C under setting [4] was 183 % of control and the T/C under setting [6] was 94 % of control.
With `CCSc1ccc2c(cc1=O)[C@@H](NC1OC(CO)C(O)C(O)C1O)CCc1cc(OC)c(OC)c(OC)c1-2` (some centres undefined), the T/C reads like this: under setting [3], 106 % of control and 111 % of control; (dose: 100.0 mg/kg/injection, schedule: Q01DX009 (ip), vehicle: other) 106 % of control and 115 % of control; (dose: 200.0 mg/kg/injection, schedule: Q01DX009 (ip), vehicle: other) 112 % of control.
`CS(=O)(=O)OCCC#N`: the T/C was 113 % of control (dose: 25.0 mg/kg/injection, schedule: Q01DX009 (ip), vehicle: saline); 91 % of control and 104 % of control (dose: 50.0 mg/kg/injection, schedule: Q01DX009 (ip), vehicle: saline); 113 % of control (dose: 100.0 mg/kg/injection, schedule: Q01DX009 (ip), vehicle: saline); 110 % of control (dose: 100.0 mg/kg/injection, schedule: Q04DX003 (ip), vehicle: alcohol); 95 % of control (dose: 150.0 mg/kg/injection, schedule: Q01DX009 (ip), vehicle: saline).

(Values after PubChem BioAssay AID328 (DTP/NCI, 2004).)
